{
  "source": "ChEMBL document CHEMBL4145534",
  "about": "“Computer-aided insights into receptor-ligand interaction for novel 5-arylhydantoin derivatives as serotonin 5-HT7 receptor agents with antidepressant activity” (Eur J Med Chem, 2018)",
  "key": {"[1]": {"molecular_target": "Beta-1 adrenergic receptor (Rattus norvegicus, UniProt P18090)", "sequence (P18090 whole entry)": "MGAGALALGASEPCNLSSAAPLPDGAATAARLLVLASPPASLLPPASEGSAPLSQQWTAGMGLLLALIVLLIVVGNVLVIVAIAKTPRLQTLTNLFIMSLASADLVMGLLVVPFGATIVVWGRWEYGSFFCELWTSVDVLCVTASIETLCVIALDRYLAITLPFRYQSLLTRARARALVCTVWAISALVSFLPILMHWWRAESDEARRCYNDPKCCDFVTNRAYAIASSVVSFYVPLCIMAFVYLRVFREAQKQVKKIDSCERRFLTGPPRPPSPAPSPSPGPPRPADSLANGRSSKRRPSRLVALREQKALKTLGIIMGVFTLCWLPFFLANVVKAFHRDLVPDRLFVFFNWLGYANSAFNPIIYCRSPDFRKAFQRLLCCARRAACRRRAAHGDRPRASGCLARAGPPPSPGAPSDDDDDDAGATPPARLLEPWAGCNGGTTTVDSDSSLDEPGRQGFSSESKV", "experiment": "Displacement of [3H]-CGP-12177 from beta1-adrenergic receptor in rat brain cortex after 1 hr by Microbeta scintillation counting method"}, "[2]": {"molecular_target": "T1, 5-hydroxytryptamine receptor 1A (Homo sapiens, UniProt P08908)", "T1 sequence (P08908 whole entry)": "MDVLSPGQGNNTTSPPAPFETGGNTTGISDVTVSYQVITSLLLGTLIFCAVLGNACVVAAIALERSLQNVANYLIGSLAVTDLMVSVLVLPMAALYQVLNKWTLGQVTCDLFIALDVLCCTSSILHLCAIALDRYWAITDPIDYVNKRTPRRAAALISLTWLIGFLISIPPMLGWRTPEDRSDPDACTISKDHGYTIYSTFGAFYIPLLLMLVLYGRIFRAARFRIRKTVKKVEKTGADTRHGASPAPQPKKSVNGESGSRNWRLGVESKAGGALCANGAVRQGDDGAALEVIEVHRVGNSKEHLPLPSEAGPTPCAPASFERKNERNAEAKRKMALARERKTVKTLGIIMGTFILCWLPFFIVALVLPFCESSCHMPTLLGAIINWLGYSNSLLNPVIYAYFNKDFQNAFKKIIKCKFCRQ", "experiment": "Displacement of [3H]-8-OH-DPAT from human 5HT1AR expressed in HEK293 cell membranes after 1 hr by Microbeta scintillation counting method"}, "[3]": {"molecular_target": "5-hydroxytryptamine receptor 7 (Homo sapiens, UniProt P34969)", "sequence (P34969 whole entry)": "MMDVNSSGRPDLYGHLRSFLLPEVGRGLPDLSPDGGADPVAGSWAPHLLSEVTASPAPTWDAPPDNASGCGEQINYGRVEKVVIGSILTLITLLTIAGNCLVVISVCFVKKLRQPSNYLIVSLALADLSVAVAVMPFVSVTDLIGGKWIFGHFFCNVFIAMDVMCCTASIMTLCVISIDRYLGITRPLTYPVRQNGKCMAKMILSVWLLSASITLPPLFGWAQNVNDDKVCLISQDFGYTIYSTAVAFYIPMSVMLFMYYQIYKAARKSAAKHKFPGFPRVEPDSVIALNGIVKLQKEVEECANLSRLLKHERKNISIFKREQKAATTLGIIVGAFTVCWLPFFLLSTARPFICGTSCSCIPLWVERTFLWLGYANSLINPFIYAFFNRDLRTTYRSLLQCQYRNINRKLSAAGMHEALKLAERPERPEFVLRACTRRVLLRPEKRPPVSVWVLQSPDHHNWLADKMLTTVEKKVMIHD", "experiment": "Displacement of [3H]-5-CT from human 5HT7BR expressed in HEK293 cell membranes after 1 hr by Microbeta scintillation counting method"}, "[4]": {"molecular_target": "T2, Adrenergic receptor alpha-2 (Rattus norvegicus, UniProt P22086+P19328+P22909)", "T2 sequence (P22086 whole entry)": "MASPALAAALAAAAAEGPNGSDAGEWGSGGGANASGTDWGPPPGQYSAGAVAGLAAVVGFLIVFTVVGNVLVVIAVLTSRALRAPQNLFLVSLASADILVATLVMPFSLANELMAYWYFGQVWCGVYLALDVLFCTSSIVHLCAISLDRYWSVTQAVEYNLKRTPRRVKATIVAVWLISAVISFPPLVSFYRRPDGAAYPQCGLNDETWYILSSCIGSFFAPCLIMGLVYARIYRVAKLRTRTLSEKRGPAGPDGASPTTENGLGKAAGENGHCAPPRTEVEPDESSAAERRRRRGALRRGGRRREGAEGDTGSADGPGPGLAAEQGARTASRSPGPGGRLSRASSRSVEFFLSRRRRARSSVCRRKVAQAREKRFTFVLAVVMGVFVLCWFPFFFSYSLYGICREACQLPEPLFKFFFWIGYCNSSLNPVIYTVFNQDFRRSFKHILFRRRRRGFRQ", "T2 sequence (P19328 whole entry)": "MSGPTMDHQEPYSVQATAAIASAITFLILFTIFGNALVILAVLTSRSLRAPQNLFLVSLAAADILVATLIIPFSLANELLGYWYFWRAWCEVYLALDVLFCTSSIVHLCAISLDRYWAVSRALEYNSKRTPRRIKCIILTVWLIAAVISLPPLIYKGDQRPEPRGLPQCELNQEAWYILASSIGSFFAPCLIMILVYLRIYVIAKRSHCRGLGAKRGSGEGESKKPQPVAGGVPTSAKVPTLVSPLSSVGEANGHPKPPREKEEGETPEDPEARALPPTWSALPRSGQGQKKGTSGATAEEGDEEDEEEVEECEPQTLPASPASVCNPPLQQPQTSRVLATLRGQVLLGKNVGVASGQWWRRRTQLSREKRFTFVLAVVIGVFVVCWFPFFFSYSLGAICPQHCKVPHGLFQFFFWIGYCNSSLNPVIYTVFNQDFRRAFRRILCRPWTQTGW", "T2 sequence (P22909 whole entry)": "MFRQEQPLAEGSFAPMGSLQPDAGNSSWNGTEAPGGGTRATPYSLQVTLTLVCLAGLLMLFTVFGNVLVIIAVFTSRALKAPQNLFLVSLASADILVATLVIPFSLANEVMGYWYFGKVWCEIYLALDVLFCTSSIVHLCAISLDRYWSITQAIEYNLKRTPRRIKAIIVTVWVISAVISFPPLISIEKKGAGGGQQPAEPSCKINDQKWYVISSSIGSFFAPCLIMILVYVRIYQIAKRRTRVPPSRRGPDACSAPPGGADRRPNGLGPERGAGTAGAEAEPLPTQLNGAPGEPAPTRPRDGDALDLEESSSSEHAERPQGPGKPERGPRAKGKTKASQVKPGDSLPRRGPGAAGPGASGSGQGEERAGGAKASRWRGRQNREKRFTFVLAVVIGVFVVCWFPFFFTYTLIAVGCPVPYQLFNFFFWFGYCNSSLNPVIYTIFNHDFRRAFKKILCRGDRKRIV", "experiment": "Displacement of [3H]-clonidine from alpha2-adrenergic receptor in rat brain cortex after 30 mins by Microbeta scintillation counting method"}},
  "data": [
    {"smiles": "CC1(c2ccc(Cl)cc2)NC(=O)N(CC(O)CN2CCN(c3ccccc3C#N)CC2)C1=O.Cl", "note": "(racemic)", "values": [
      {"measurement": "Ki", "setting": "[1]", "value": "> 10000", "unit": "nM"},
      {"measurement": "Ki", "setting": "[2]", "value": 305, "unit": "nM"},
      {"measurement": "Ki", "setting": "[3]", "value": 9, "unit": "nM"},
      {"measurement": "Ki", "setting": "[4]", "value": "> 10000", "unit": "nM"}
    ]},
    {"smiles": "COc1ccccc1N1CCN(CC(O)CN2C(=O)NC(C)(c3ccc(Br)cc3)C2=O)CC1.Cl", "note": "(racemic)", "values": [
      {"measurement": "Ki", "setting": "[1]", "value": "> 10000", "unit": "nM"},
      {"measurement": "Ki", "setting": "[2]", "value": 85, "unit": "nM"},
      {"measurement": "Ki", "setting": "[3]", "value": 10, "unit": "nM"},
      {"measurement": "Ki", "setting": "[4]", "value": "> 5000", "unit": "nM"}
    ]},
    {"smiles": "CC1(c2ccc(Br)cc2)NC(=O)N(CC(O)CN2CCN(c3ccccc3C#N)CC2)C1=O.Cl", "note": "(racemic)", "values": [
      {"measurement": "Ki", "setting": "[1]", "value": "> 10000", "unit": "nM"},
      {"measurement": "Ki", "setting": "[2]", "value": 140, "unit": "nM"},
      {"measurement": "Ki", "setting": "[3]", "value": 7, "unit": "nM"},
      {"measurement": "Ki", "setting": "[4]", "value": "> 5000", "unit": "nM"}
    ]}
  ]
}
